Structures are written as SMILES. Where a name gives a salt, the structure may show the parent alone.

T1 sequence (Q05941 23-502): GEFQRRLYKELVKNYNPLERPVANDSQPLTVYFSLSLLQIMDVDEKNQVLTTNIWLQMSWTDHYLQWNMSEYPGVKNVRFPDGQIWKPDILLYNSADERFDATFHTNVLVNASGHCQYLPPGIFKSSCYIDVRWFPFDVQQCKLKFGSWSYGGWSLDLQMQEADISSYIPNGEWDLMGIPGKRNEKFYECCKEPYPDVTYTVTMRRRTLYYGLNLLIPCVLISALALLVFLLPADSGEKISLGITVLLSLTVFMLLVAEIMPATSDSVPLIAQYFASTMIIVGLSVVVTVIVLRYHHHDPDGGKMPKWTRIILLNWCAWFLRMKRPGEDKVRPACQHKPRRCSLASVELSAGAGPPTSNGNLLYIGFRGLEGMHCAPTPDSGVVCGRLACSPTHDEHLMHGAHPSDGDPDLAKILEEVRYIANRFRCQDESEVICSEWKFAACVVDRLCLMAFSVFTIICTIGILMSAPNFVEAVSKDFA

The assay addresses T1, α7-subtype of nicotinic receptors (Rattus norvegicus, UniProt Q05941).
T1 construct: Cerebral cortices from male Wistar rats (150–250 g) are homogenised; from tissue; host or cells: rat cerebral cortex membrane homogenate
Nature of the assay: In vitro inhibition of 3H-α-bungarotoxine binding in rat brain. Conditions: rat cerebral cortex homogenate; 3H-α-bungarotoxine 2 nM; 2 hours at 37° C.
As usually defined, the IC50 is the concentration that inhibits the measured activity by half. High values mean a need for much substance, low ones inhibition by little substance. For the compound `c1c[se]c(-c2ccc(N3CCN4CCC3CC4)nn2)c1` [Compound 5, 4-(6-Selenophen-2-yl-pyridazin-3-yl)-1,4-diazabicyclo[3.2.2]nonane fumaric acid salt], the half-maximal inhibitory concentration (IC50) came out at 0.0065 µM.

In turn, `c1ccc(-c2ccc(N3CCN4CCC3CC4)cc2)cc1` [Compound 34, 4-Biphenyl-4-yl-1,4-diazabicyclo[3.2.2]nonane fumaric acid salt] had a half-maximal inhibitory concentration (IC50) of 0.024 µM.

`c1csc(-c2ccc(N3CCN4CCC3CC4)nn2)c1` [Compound 4, 4-(6-Thien-2-yl-pyridazin-3-yl)-1,4-diazabicyclo[3.2.2]nonane fumaric acid salt] yielded an IC50 of 0.044 µM.

`c1cc(-c2ccc(N3CCN4CCC3CC4)nn2)co1` [Compound 7, 4-(6-Furan-3-yl-pyridazin-3-yl)-1,4-diazabicyclo[3.2.2]nonane fumaric acid salt] came in with an IC50 of 0.022 µM.

In turn, `c1cc(-c2ccc(N3CCN4CCC3CC4)nn2)cs1` [Compound 1, 4-[6-Thien-3-yl-pyridazin-3-yl]-1,4-diazabicyclo[3.2.2]nonane fumaric acid salt] displayed a half-maximal inhibitory concentration (IC50) of 0.038 µM.

The values are drawn from patent publication US7223753B2, “Diazabicyclic biaryl derivatives” (Neurosearch A/S, priority 2002, dated 2007).
